Results reported in US20210330611A1, “THERAPY FOR NEUROLOGICAL DISEASES/DISORDERS” (priority 2020, published 2021).
Counter-ions that a name gives are not always drawn. Like-named read-outs stand apart in the source and are kept apart here.

Experiments:
[1] = test system: fibrin-induced microglia activation; test: Image-based assay of fibrin-induced microglia activation (HTS and dose response); assay type: cell-based, rat; conditions: for inhibition at 10 µM: Rattus norvegicus, Microglia, read-out: Fibrin % inhibition
[2] = test system: LPS-induced microglia activation; test: Image-based assay of LPS-induced microglia activation (HTS and dose response); assay type: cell-based, rat; conditions: for inhibition at 10 µM: Rattus norvegicus, Microglia, read-out: LPS % inhibition
[3] = test system: fibrin- and LPS-induced microglia activation; test: cells; assay type: cell-based, rat
primary rat microglia [4] = test system: primary rat microglia
primary rat microglia [5] = test system: primary rat microglia; remark: listed apart in the source
primary rat microglia [6] = test: Cell toxicity (dead cells, size <150 μm2) in LPS assay; conditions: read-out: Cell Toxicity IC50 (uM) [LPS assay]
primary rat microglia [7] = test: Cell toxicity (dead cells, size <150 μm2) in coated fibrin (cFib) assay; conditions: read-out: Cell Toxicity IC50 (uM) [cFib assay];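 on Fibrin % cell toxicity: share of dead cells sized under 150 µm2 at 10 µM in fibrin-stimulated microglia HTS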
[8] = primary microglia HTS, fibrin stimulation, increased cell size (>800 μm^2) as marker of activation
[9] = LPS-induced microglia activation, dose response, read-out: LPS IC50 (uM) (Suppl. Table 7)
[10] = Table 1, dose response 0.001-20 μM, triplicates, primary rat microglia, 48 h, read-out: LPS IC50
[11] = dose response, LPS-induced microglia activation, read-out: LPS IC50
[12] = primary microglia HTS, LPS stimulation, increased cell size (>800 μm^2) as marker of activation
[13] = HTS of 1907 compounds, quadrant by fibrin and LPS inhibition
[14] = hit classification in microglia HTS
[15] = quadrant by fibrin and LPS inhibition in HTS of 1907 compounds
[16] = primary microglia HTS, 10 μM, fibrin-stimulated, cell size >800 μm^2 as marker of activation
[17] = primary microglia HTS, 10 μM, LPS-stimulated, cell size >800 μm^2 as marker of activation
[18] = quadrant by fibrin and LPS inhibition, HTS at 10 μM
[19] = read-out: Fibrin IC50 (uM) (Suppl. Table 7)
[20] = read-out: LPS IC50 (uM) (Suppl. Table 7)

Compound: COc1cc2c(cc1O)CC[C@@H]1[C@@H]2CC[C@]2(C)[C@@H](O)CC[C@@H]12 [2-methoxyestradiol, reference compound]
- Fibrin Selectivity [1]: 2
- Fibrin Selectivity (LOG10) [1]: 0.21
- IC50 ([1]; Table 1, dose response 0.001-20 μM, triplicates, primary rat microglia, 48 h, read-out: Fibrin IC50): 3 µM
- IC50 ([1]; Table 3, read-out: Fibrin IC50 (uM) (Suppl. Table 7)): 3 µM
- IC50 ([1]; dose response, fibrin-induced microglia activation, read-out: Fibrin IC50): 3 µM
- IC50 ([1]; fibrin-induced microglia activation, dose response, read-out: Fibrin IC50 (uM) (Suppl. Table 7)): 3 µM
- Fibrin % inhibition [1, 8]: 63%
- IC50 [2, 9]: 5 µM
- IC50 [2, 10]: 5 µM
- IC50 ([2]; Table 3, read-out: LPS IC50 (uM) (Suppl. Table 7)): 5 µM
- IC50 [2, 11]: 5 µM
- LPS % inhibition [2, 12]: 65%
- Hit ([3]; HTS hit classification): HIT (Hits were defined as molecules that exhibited greater than 50% inhibition of either fibrin or LPS activation)
- Quadrant (FIG. 5b) [3, 13]: Q2
- Quadrant (FIG. 5b) ([3]; Table 1, screen at 10 μM): Q2
- Cherry-picked Hit (Suppl. Table 7) ([3]; Table 3): HIT (Hits were defined as molecules that exhibited greater than 50% inhibition of either fibrin or LPS activation)
- Quadrant (FIG. 5b) ([3]; Table 3, screen at 10 μM): Q2
- Cherry-picked Hit (Suppl. Table 7) [3, 14]: HIT (Hits were defined as molecules that exhibited greater than 50% inhibition of either fibrin or LPS activation)
- Quadrant (FIG. 5b) [3, 15]: Q2
- Fibrin % cell toxicity (primary rat microglia [4]): 2%
- LPS % cell toxicity (primary rat microglia [5]): 2%
- IC50 (primary rat microglia [6]; LPS assay): > 20 µM
- IC50 (primary rat microglia [6]; Table 3): > 20 µM
- IC50 (primary rat microglia [7]; Table 3): > 20 µM
- IC50 (primary rat microglia [7]; cFib assay): > 20 µM

Compound: CC(=O)[C@@]1(O)CC[C@H]2[C@@H]3C=C(Cl)C4=CC(=O)[C@@H]5C[C@@H]5[C@]4(C)[C@H]3CC[C@@]21C [Cyproterone, reference compound]
- Fibrin % inhibition [1, 8]: 51%
- IC50 [2, 9]: > 20 µM
- IC50 [2, 10]: > 20 µM
- IC50 [2, 11]: > 20 µM
- LPS % inhibition [2, 12]: 5%
- Hit ([3]; HTS hit classification): HIT (Hits were defined as molecules that exhibited greater than 50% inhibition of either fibrin or LPS activation)
- Quadrant (FIG. 5b) [3, 13]: Q3
- Quadrant (FIG. 5b) ([3]; Table 1, screen at 10 μM): Q3
- Cherry-picked Hit (Suppl. Table 7) [3, 14]: HIT (Hits were defined as molecules that exhibited greater than 50% inhibition of either fibrin or LPS activation)
- Quadrant (FIG. 5b) [3, 15]: Q3
- Fibrin % cell toxicity (primary rat microglia [4]): 1%
- LPS % cell toxicity (primary rat microglia [5]): 0%
- IC50 (primary rat microglia [6]; LPS assay): > 20 µM
- IC50 (primary rat microglia [7]; cFib assay): > 20 µM

Compound: CN[C@H](CC(C)C)C(=O)N[C@H]1C(=O)N[C@@H](CC(N)=O)C(=O)N[C@H]2C(=O)N[C@H]3C(=O)N[C@H](C(=O)N[C@H](C(=O)O)c4cc(O)cc(O)c4-c4cc3ccc4O)[C@H](O)c3ccc(c(Cl)c3)Oc3cc2cc(c3O[C@@H]2O[C@H](CO)[C@@H](O)[C@H](O)[C@H]2O[C@H]2C[C@](C)(N)[C@H](O)[C@H](C)O2)Oc2ccc(cc2Cl)[C@H]1O [Vancomycin]
- Fibrin % inhibition ([1]; 10 µM): −1%
- LPS % inhibition ([2]; 10 µM): −2%
- Quadrant (FIG. 5b) [3]: Q4
- Fibrin % cell toxicity (primary rat microglia [4]; rat): 1%
- LPS % cell toxicity (primary rat microglia [5]; rat): 0%

Compound: Clc1ccc(Nc2nnc(Cc3ccncc3)c3ccccc23)cc1 [Vatalanib]
- inhibition at 10 µM [1, 16]: -26%
- inhibition at 10 µM [2, 17]: -3%
- Quadrant (FIG. 5b) [3, 13]: Q4
- Fibrin % cell toxicity (primary rat microglia [4]; rat): 1%
- LPS % cell toxicity (primary rat microglia [5]; rat): 0%

Compound: CC[C@]1(O)C[C@H]2CN(CCc3c([nH]c4ccccc34)[C@@](C(=O)OC)(c3cc4c(cc3OC)N(C=O)[C@H]3[C@@](O)(C(=O)OC)[C@H](OC(C)=O)[C@]5(CC)C=CCN6CC[C@]43[C@@H]65)C2)C1 [Vincristine Sulfate]
- Fibrin % inhibition ([1]; primary microglia HTS, fibrin stimulation, compounds at 10 μM, 10 µM): 108%
- LPS % inhibition ([2]; primary microglia HTS, LPS stimulation, compounds at 10 μM, 10 µM): 119%
- Quadrant (FIG. 5b) [3, 18]: Q2
- Fibrin % cell toxicity (primary rat microglia [4]; rat): 16%
- LPS % cell toxicity (primary rat microglia [5]; rat): 7%

Compound: CC[C@]1(O)C[C@H]2CN(CCc3c([nH]c4ccccc34)[C@@](C(=O)OC)(c3cc4c(cc3OC)N(C=O)[C@H]3[C@@](O)(C(=O)OC)[C@H](OC(C)=O)[C@]5(CC)C=CCN6CC[C@]43[C@@H]65)C2)C1 [Vincristine]
- inhibition at 10 µM ([1]; primary microglia HTS, fibrin stimulation, compounds at 10 μM): 105%
- inhibition at 10 µM ([2]; primary microglia HTS, LPS stimulation, compounds at 10 μM): 104%
- Quadrant (FIG. 5b) [3, 18]: Q2
- Fibrin % cell toxicity (primary rat microglia [4]; rat): 33%
- LPS % cell toxicity (primary rat microglia [5]; rat): 10%

Compound: CC[C@]1(O)C[C@@H]2CN(CCc3c([nH]c4ccccc34)[C@@](C(=O)OC)(c3cc4c(cc3OC)N(C)[C@H]3[C@@](O)(C(N)=O)[C@H](O)[C@]5(CC)C=CCN6CC[C@]43[C@@H]65)C2)C1 [Vindesine, Vindesine Sulfate]
- Fibrin % inhibition ([1]; 10 µM): 106%
- LPS % inhibition ([2]; 10 µM): 102%
- Quadrant (FIG. 5b) [3]: Q2
- Fibrin % cell toxicity (primary rat microglia [4]): 30%
- LPS % cell toxicity (primary rat microglia [5]): 9%

Compound: CCOC(=O)C1=C[C@]2(CC)CCCN3CCc4c(n1c1ccccc41)[C@@H]32 [Vinpocetine]
- inhibition at 10 µM [1, 16]: -19%
- inhibition at 10 µM [2, 17]: 0%
- Quadrant (FIG. 5b) [3, 13]: Q4
- Fibrin % cell toxicity (primary rat microglia [4]; rat): 0%
- LPS % cell toxicity (primary rat microglia [5]; rat): 0%

Compound: COc1cc(C(=O)NS(=O)(=O)c2ccccc2C)ccc1Cc1cn(C)c2ccc(NC(=O)OC3CCCC3)cc12 [Zafirlukast]
- inhibition at 10 µM [1, 16]: -21%
- inhibition at 10 µM [2, 17]: 3%
- Quadrant (FIG. 5b) [3, 13]: Q4
- Fibrin % cell toxicity (primary rat microglia [4]; rat): 0%
- LPS % cell toxicity (primary rat microglia [5]; rat): 1%

Compound: Nc1ccn([C@H]2CC[C@@H](CO)O2)c(=O)n1 [Zalcitabine]
- inhibition at 10 µM [1, 16]: -10%
- inhibition at 10 µM [2, 17]: 11%
- Quadrant (FIG. 5b) [3, 13]: Q4
- Fibrin % cell toxicity (primary rat microglia [4]; rat): 0%
- LPS % cell toxicity (primary rat microglia [5]; rat): 0%

Compound: O=C1Cc2cc(CCN3CCN(c4nsc5ccccc45)CC3)c(Cl)cc2N1 [Ziprasidone Mesylate, Ziprasidone]
- Fibrin % inhibition [1, 16]: 14%
- LPS % inhibition [2, 17]: 35%
- Quadrant (FIG. 5b) [3, 13]: Q4
- Fibrin % cell toxicity (primary rat microglia [4]): 1%
- LPS % cell toxicity (primary rat microglia [5]): 1%

Compound: Cc1ccc(-c2nc3ccc(C)cn3c2CC(=O)N(C)C)cc1 [Zolpidem, Zolpidem Tartrate]
- Fibrin % inhibition ([1]; 10 µM): −12%
- LPS % inhibition ([2]; 10 µM): 4%
- Quadrant (FIG. 5b) [3]: Q4
- Fibrin % cell toxicity (primary rat microglia [4]): 0%
- LPS % cell toxicity (primary rat microglia [5]): 0%

Compound: Acriflavinium Hydrochloride
- Fibrin % inhibition [1, 8]: 110%
- LPS % inhibition [2, 12]: 129%
- Quadrant (FIG. 5b) [3, 15]: Q2
- Fibrin % cell toxicity (primary rat microglia [4]): 57%
- LPS % cell toxicity (primary rat microglia [5]): 63%

Compound: Hydrocortisone hemisuccinate [reference compound]
- Fibrin % inhibition [1]: 100%
- fib specificity [1]: 8.4
- fib_HS [1]: −0.39
- IC50 ([1]; read-out: Fibrin IC50): 0.02 µM
- IC50 [1, 19]: 0.02 µM
- IC50 ([1]; read-out: fib_IC50): 0.004 µM
- LPS % inhibition [2]: 64%
- LPS specificity [2]: 0.1
- LPS_HS [2]: −1.10
- IC50 ([2]; read-out: LPS IC50): 7 µM
- IC50 [2, 20]: 7 µM
- IC50 ([2]; read-out: LPS_IC50): 0.036 µM
- Activity [3]: fib/LPS
- Cherry-picked Hit (Suppl. Table 7) [3]: HIT (key: HIT: Hits were defined as molecules that exhibited greater than 50% inhibition of either fibrin or LPS activation)
- Hit [3]: HIT (key: HIT: Hits were defined as molecules that exhibited greater than 50% inhibition of either fibrin or LPS activation)
- Quadrant (FIG. 5b) [3]: Q2
- Fibrin % cell toxicity (primary rat microglia [4]): 1%
- IC50 (primary rat microglia [4]): > 20 µM
- IC50 (primary rat microglia [5]): > 20 µM
- LPS % cell toxicity (primary rat microglia [5]): 1%

Compound: Modaline Sulfate
- Fibrin % inhibition [1]: −9%
- LPS % inhibition [2]: 25%
- Quadrant (FIG. 5b) [3]: Q4
- Fibrin % cell toxicity (primary rat microglia [4]): 1%
- LPS % cell toxicity (primary rat microglia [5]): 0%

Compound: Prednisolone sodium phosphate [reference compound]
- Fibrin % inhibition [1]: 108%
- IC50 ([1]; read-out: Fibrin IC50): 0.1 µM
- IC50 [1, 19]: 0.1 µM
- LPS % inhibition [2]: 96%
- IC50 ([2]; read-out: LPS IC50): 4 µM
- IC50 [2, 20]: 4 µM
- Cherry-picked Hit (Suppl. Table 7) [3]: HIT (key: HIT: Hits were defined as molecules that exhibited greater than 50% inhibition of either fibrin or LPS activation)
- Hit [3]: HIT (key: HIT: Hits were defined as molecules that exhibited greater than 50% inhibition of either fibrin or LPS activation)
- Quadrant (FIG. 5b) [3]: Q2
- Fibrin % cell toxicity (primary rat microglia [4]): 3%
- IC50 (primary rat microglia [4]): > 20 µM
- IC50 (primary rat microglia [5]): > 20 µM
- LPS % cell toxicity (primary rat microglia [5]): 3%

Compound: Sulfanilate Zinc
- Fibrin % inhibition ([1]; 10 µM): −6%
- LPS % inhibition ([2]; 10 µM): 15%
- Quadrant (FIG. 5b) [3]: Q4
- Fibrin % cell toxicity (primary rat microglia [4]): 0%
- LPS % cell toxicity (primary rat microglia [5]): 0%

Compound: Vitamin A
- Fibrin % inhibition [1, 16]: 15%
- LPS % inhibition [2, 17]: 17%
- Quadrant (FIG. 5b) [3, 13]: Q4
- Fibrin % cell toxicity (primary rat microglia [4]): 1%
- LPS % cell toxicity (primary rat microglia [5]): 0%
